In ChEMBL document CHEMBL2095176, “GSK Tuberculosis Screening Data”:
Converted amounts (≈) assume the structure as drawn.

tested on: Mycobacterium tuberculosis variant bovis BCG; assay: microbe, parasite or virus in culture; assay type: functional

SMILES	MIC90 [µM]
O=C(Nc1nc(-c2ccccn2)cc2ccccc12)c1cccc(Cl)c1	3 (≈ 1.08 µg/mL)
N#Cc1nc(-c2ccccc2F)oc1NCCc1ccccc1	7.9 (≈ 2.43 µg/mL)
c1csc(Cc2nn3c(-c4n[nH]c5c4CCC5)nnc3s2)c1	3.2 (≈ 1.05 µg/mL)
Cc1nc2ccccn2c1C(=O)NCc1ccc2c(c1)OCO2	3 (≈ 0.928 µg/mL)
Cc1cc(C)c2cc(CN(Cc3cccnc3)C(=O)c3ccc(F)cc3)c(Cl)nc2c1	2.9 (≈ 1.26 µg/mL)
O=C(c1cc2ccccc2o1)N1CCN(Cc2ccc3c(c2)OCO3)CC1	2.7 (≈ 0.984 µg/mL)
COc1ccc(-c2cc(=O)c3cc(OCC(=O)OC(C)C)ccc3o2)cc1	6.2 (≈ 2.28 µg/mL)
O=C(c1cnn(C(=O)c2ccco2)c1)c1ccccc1O	2.5 (≈ 0.706 µg/mL)
c1ccc2c(Cc3nnc(Sc4ccnc(N5CCN(c6ccncc6)CC5)n4)n3CCCN3CCOCC3)c[nH]c2c1	2.2 (≈ 1.31 µg/mL)
COc1cc2ccccc2cc1C(=O)NCc1cccc(-c2ccccc2OC)c1	3.6 (≈ 1.43 µg/mL)
Nc1cccnc1Nc1ccc(C(F)(F)F)cc1	3.7 (≈ 0.937 µg/mL)
O=C(O)COCC(=O)NNC(=O)c1ccncc1	2.3 (≈ 0.582 µg/mL)
NC(=O)C(N)Cc1c[nH]c2ccc(F)cc12 (stereo unspecified)	2.3 (≈ 0.509 µg/mL)
CCSc1ccc(C(=O)Nc2nc(-c3ccccn3)cs2)cc1	2.3 (≈ 0.785 µg/mL)
Cc1ccc(-c2nnc(NC(=O)c3ccc(F)cc3)o2)cc1C	2.3 (≈ 0.716 µg/mL)
c1cc(CN2CCC3(CC2)OCCc2sccc23)nc(-c2ccc3c(c2)OCO3)c1	2.3 (≈ 0.967 µg/mL)
Cc1csc2nc(Cc3ccc(C(=O)c4ccc(C(=O)OCc5ccccc5)cc4)cc3)oc(=O)c12	2.3 (≈ 1.14 µg/mL)
COc1ccc(Nc2ccccc2N)cc1Cl	2.3 (≈ 0.572 µg/mL)
Cc1cc(OCC(=O)NCc2ccccc2)c2cc(Br)ccc2n1	4.6 (≈ 1.77 µg/mL)
Cc1ccc(N2CCN(CCOc3cccc(-c4ccc(C(=O)N5CCCC5)cc4)c3)CC2)cc1C	2.4 (≈ 1.16 µg/mL)
O=C(COc1ccc(Br)cc1)NNC(=O)c1cccs1	2.4 (≈ 0.853 µg/mL)

SMILES	MIC90 [µM]
CCN(CC)CCCn1c(Sc2ccnc(N3CCN(c4ccncc4)CC3)n2)nnc1-c1ccccc1	2.4 (≈ 1.27 µg/mL)
CCN(CC)CCCn1c(Sc2ccnc(N3CCN(c4ccncc4)CC3)n2)nnc1-c1ccccn1	2.4 (≈ 1.27 µg/mL)
COc1ccc(CN2CCC3(CCc4ccccc43)CC2)cc1OCc1ccccc1	2.4 (≈ 0.993 µg/mL)
Cn1c(SCC(=O)Nc2sccc2C#N)nnc1-c1ccc(Cl)cc1	2.4 (≈ 0.936 µg/mL)
N#Cc1ccc2c(c1)CCN(CCCSc1ccnc3cc(C(F)(F)F)ccc13)CC2	3.2 (≈ 1.41 µg/mL)
Cc1cc(C(=O)Nc2nc3c(C)cccc3s2)c2c(C)nn(C(C)C)c2n1	2.5 (≈ 0.949 µg/mL)
O=C(COc1ccc(-c2ccccc2)cc1)NNC(=O)c1ccco1	2.5 (≈ 0.841 µg/mL)
O=c1c2sc(-c3ccc(Cl)cc3)cc2ncn1-c1ccc2c(c1)OC[C@H](CN1CCCC1)O2	2.5 (≈ 1.2 µg/mL)
O=C(NC12CC3CC(CC(C3)C1)C2)c1cc2ccccc2[nH]1	2.5 (≈ 0.736 µg/mL)
CCOc1ccc(OCc2ccc(C(=O)NNC(=O)c3ccc([N+](=O)[O-])o3)cc2)cc1	1.6 (≈ 0.681 µg/mL)
COc1ccc(N(C(=O)CNc2ccccc2Nc2ccc(Cl)cc2)C(C)C)cc1	2.6 (≈ 1.1 µg/mL)
CC1CCN(Cc2c(O)ccc3oc(-c4ccco4)cc(=O)c23)CC1	2.6 (≈ 0.882 µg/mL)
CC1=NN(C(=O)c2ccncc2)C(O)(c2ccncc2)C1 (stereo unspecified)	2.6 (≈ 0.734 µg/mL)
CC(=O)NCCn1c(Sc2ccnc(N3CCN(c4ccncc4)CC3)n2)nnc1-c1ccco1	2.6 (≈ 1.28 µg/mL)
CC(=O)c1cccc(NC(=O)N(CCc2cccnc2)Cc2csc(-c3ccc(CNCc4ccccc4)cc3)n2)c1	2.6 (≈ 1.5 µg/mL)
c1ccc(SCc2nn3c(-c4ccccc4)nnc3s2)cc1	7.5 (≈ 2.43 µg/mL)
c1ccc(-c2nc(N3CCCNCC3)c3ccccc3n2)cc1	2.7 (≈ 0.822 µg/mL)
COc1ccc(-c2nnc3sc(Cc4ccccc4)nn23)cc1	2.7 (≈ 0.87 µg/mL)
CN(C)CCNCc1ccc(-c2cc(Cl)cc(Cl)c2)o1	2.7 (≈ 0.846 µg/mL)
c1ccc(-c2csc(CN3CCC4(CC3)OCCc3sccc34)c2)cc1	2.7 (≈ 1.03 µg/mL)
c1ccc(Cc2nnc(Sc3ccnc(N4CCN(c5ccncc5)CC4)n3)n2CCCN2CCOCC2)cc1	2.7 (≈ 1.51 µg/mL)

SMILES	MIC90 [µM]
COc1cc(C(C)(C)C)ccc1C(=O)Nc1cccc2c1CCC2N (stereo unspecified)	2.7 (≈ 0.914 µg/mL)
CCC(Sc1nc2ccccc2o1)C(=O)Nc1nccs1 (stereo unspecified)	5.7 (≈ 1.82 µg/mL)
COc1ccc(S(=O)(=O)Nc2ccccc2Nc2ccc(C)cc2)cc1	2.8 (≈ 1.03 µg/mL)
N#Cc1ccc(-c2ccc(OCC(=O)NNC(=O)c3ccco3)cc2)cc1	2.8 (≈ 1.01 µg/mL)
CCc1c(C)nc(-n2nc(C)cc2NC(=O)COc2ccccc2F)[nH]c1=O	2.8 (≈ 1.08 µg/mL)
c1ccc2oc(CN3CCC4(CC3)OCCc3sccc34)cc2c1	2.8 (≈ 0.95 µg/mL)
COc1cc(Nc2ccccc2)ccc1NS(=O)(=O)c1ccc(-c2cc(C(F)(F)F)n(C)n2)s1	2.8 (≈ 1.42 µg/mL)
Cc1cc(C)c2cc(C(=O)NC3CCCCC3)[nH]c2c1	2.8 (≈ 0.757 µg/mL)
Cc1cc2ncn(-c3nccc(N4CCN(Cc5ccncc5)CC4)n3)c2cc1C	2.8 (≈ 1.12 µg/mL)
CCN(CC)CCCn1c(Sc2ccnc(N3CCN(c4ccncc4)CC3)n2)nnc1-c1ccco1	2.8 (≈ 1.46 µg/mL)
c1coc(-c2nnc(Sc3ccnc(N4CCN(c5ccncc5)CC4)n3)n2CCCN2CCOCC2)c1	2.8 (≈ 1.49 µg/mL)
c1ccc2c(Cc3nnc(Sc4ccnc(N5CCN(c6ccncc6)CC5)n4)n3CCN3CCOCC3)c[nH]c2c1	2.8 (≈ 1.63 µg/mL)
O=C(Nc1nnc(-c2ccc(Cl)cc2)o1)c1ccc(Cl)cc1	2.8 (≈ 0.936 µg/mL)
Cc1ccc(C)c(-c2nnc(NC(=O)c3ccc(Cl)s3)o2)c1	2.8 (≈ 0.935 µg/mL)
CCN(Cc1ccc2c(c1)OCO2)C(=O)CSc1nc(NC)c2ccccc2n1	3.3 (≈ 1.35 µg/mL)
CCc1ccc(Nc2nnc(SCc3cc(C)on3)s2)cc1	7.4 (≈ 2.46 µg/mL)
NC(=O)c1cnc2ccc(S(=O)(=O)c3ccccc3)cc2c1Nc1ccc(O)cc1	2.9 (≈ 1.22 µg/mL)
N#Cc1nc(-c2cccs2)oc1S(=O)(=O)c1ccc(Br)cc1	2.9 (≈ 1.15 µg/mL)
COc1ccc(-c2ccc(Nc3cccc(S(=O)(=O)CCNCC(C)(C)C)c3)nc2)cn1	2.9 (≈ 1.32 µg/mL)
CCN(CC)CCCn1c(Cc2ccccc2)nnc1Sc1ccnc(N2CCN(c3ccncc3)CC2)n1	2.9 (≈ 1.58 µg/mL)
COc1cc(Cc2cnc(N)nc2N)c2cnccc2c1N(C)C	6.4 (≈ 2.08 µg/mL)

SMILES	MIC90 [µM]
COCc1nc(N2CCNCC2)c2c(C)nn(-c3ccc(C)cc3)c2n1	3 (≈ 1.06 µg/mL)
COc1ccc(S(=O)(=O)Nc2ccc(Nc3ccccc3)cc2OC)cc1	3 (≈ 1.15 µg/mL)
COc1ccc(C(=O)Nc2nnc(-c3ccc4c(c3)CCCC4)o2)cc1	3 (≈ 1.05 µg/mL)
COc1ccc2cnnc(SCC(=O)NNC(=O)c3cccs3)c2c1OC	3 (≈ 1.21 µg/mL)
O=C(Nc1nnc(-c2ccc(Cl)s2)o1)c1ccc(Br)s1	3 (≈ 1.17 µg/mL)
Cc1nnc(SCC(=O)NNC(=O)c2ccco2)nc1O	3 (≈ 0.928 µg/mL)
O=C(Nc1nc(-c2ccccn2)cs1)c1ccc2c(c1)OCO2	3 (≈ 0.976 µg/mL)
Cc1ccc(C)c(-c2nnc(NC(=O)c3ccc4c(c3)CCCC4)o2)c1	3 (≈ 1.04 µg/mL)
CCCc1cc(=O)[nH]c(-n2nc(C)cc2NC(=O)C(CC)c2ccccc2)n1 (stereo unspecified)	2.7 (≈ 1.02 µg/mL)
Br.CC1(C)N=C(N)N=C(N)N1OCCc1ccc2ccccc2c1	8.8
Br.CCCc1cc(C(C)=O)ccc1OCCCON1C(=N)N=C(N)NC1(C)C	8.8
Cc1cc(NCCc2ccccc2)nc(NC(=N)Nc2ccc(Cl)cc2)n1	2 (≈ 0.762 µg/mL)
Nn1c(=O)oc2ccc(Cl)cc2c1=O	2.8 (≈ 0.595 µg/mL)
Cc1cc(C(=O)Nc2nc(-c3ccccn3)nc3ccsc23)no1	2.8 (≈ 0.945 µg/mL)
c1ccc(-c2csc(Nc3nc4cc5c(cc4s3)OCO5)n2)nc1	1.5 (≈ 0.532 µg/mL)
Fc1cccc2sc(Nc3nc(-c4ccccn4)cs3)nc12	2.3 (≈ 0.755 µg/mL)
Fc1ccc2nc(Nc3nc(-c4ccccn4)cs3)sc2c1	1 (≈ 0.328 µg/mL)
Br.CC(C)(C)c1ccccc1OCCCON1C(=N)N=C(N)NC1(C)C	1.8
